Source: the OPERA property sets (Mansouri et al. 2018)

SMILES	melting point [°C]	ready biodegradability	boiling point [°C]	log10 Henry constant (atm·m³/mol)	log10 Koa	log10 Koc (L/kg)	log10 vapour pressure (mmHg)	log10 biodegradation half-life (days)
O=C1C(Br)=C(Br)C(=O)C(Br)=C1Br	293	–	–	–	–	–	–	–
CCCCC(CC)C(=O)OCC(COC(=O)C(CC)CCCC)(COC(=O)C(CC)CCCC)COC(=O)C(CC)CCCC (centres undefined)	–	not readily biodegradable	–	–	–	–	–	–
O=C1CCC(=O)N1I	204	–	–	–	–	–	–	–
Nc1ccc2c(S(=O)(=O)O)cccc2c1S(=O)(=O)O	–	not readily biodegradable	–	–	–	–	–	–
CN1C(=O)CCC1=O	71	–	234	–	–	–	–	–
O=C(O)CF	35.2	–	168	-7.91	–	–	–	–
CN(C)c1ccccc1Cl	–	–	205	–	–	–	–	–
N#Cc1ccccc1[N+](=O)[O-]	108	–	–	–	–	–	–	–
C#CC=CC=C	-81	–	83.5	–	–	–	–	–
O=C(O)CN(CCO)CC(=O)O	178	–	–	–	–	–	–	–
Oc1cccc2c1CCCC2	70	–	266	–	–	–	–	–
CCCCCCCCCCCCCC(N)=O	104	–	–	–	–	–	–	–
O=C(O)/C(F)=C/c1ccccc1	158	–	290	–	–	–	–	–
CC(Oc1c(Cl)cccc1Cl)C1=NCCN1 (centres undefined)	127	–	–	–	–	–	–	–
CC(C)OC(=O)C1(S(=O)(=O)c2ccc([N+](=O)[O-])cc2)CCC1	65.5	–	–	–	–	–	–	–
Clc1ccc(Cn2c(CN3CCCC3)nc3ccccc32)cc1	167	–	–	–	–	–	–	–
ClC(Br)Br	-20	not readily biodegradable	120	-3.11	3.59	1.92	–	–
COc1nc(C)nc(NC(=O)NS(=O)(=O)c2ccccc2OCCCl)n1	186	–	–	–	–	2.02	–	–
C[C@H](CC(=O)O)[C@H]1CC[C@H]2[C@@H]3CC[C@@H]4CCCC[C@]4(C)[C@H]3CC[C@]12C	177	–	–	–	–	–	–	–
CC(C)(C(N)=O)n1nnc2ccccc21	187	–	–	–	–	–	–	–
CCCCCCCCOc1ccccc1	8	–	285	–	–	–	–	–
CCCCOC(=O)OCCCC	–	–	170	–	–	–	–	–
Cc1ncc([N+](=O)[O-])n1CC(C)O (centres undefined)	76	–	–	–	–	–	–	–

SMILES	melting point [°C]	ready biodegradability	boiling point [°C]	log10 Henry constant (atm·m³/mol)	log10 Koa	log10 Koc (L/kg)	log10 vapour pressure (mmHg)	log10 biodegradation half-life (days)
CC(=O)C(C)(C)O	–	–	140	–	–	–	0.792	–
CCNC(=O)C1CC(C)CCC1C(C)C (centres undefined)	88	–	–	–	–	–	–	–
CCCCCCCCC[C@H](O)CC	25	–	–	–	–	–	–	–
ClC1CCCC1	–	–	114	–	–	–	–	–
O=C(O)C(F)(F)C(F)(F)C(F)(F)C(F)(F)C(F)(F)C(F)F	34	–	192	–	–	–	–	–
CC(N)CO (centres undefined)	–	–	174	–	–	–	–	–
CN1CC[C@]23CCCC[C@H]2[C@H]1Cc1ccc(O)cc13	198	–	–	–	–	–	–	–
CCC(=O)CCl	–	–	138	–	–	–	–	–
COc1ccc(C(=O)O)c(OC)c1	109	–	–	–	–	–	–	–
CCCCCCCCCCCCCCCCCCCCCCCCCCCCCC	65.8	readily biodegradable	450	–	–	–	-10.6	2.24
CCCCCOC	–	–	99	–	–	–	–	–
CCCCNC(=O)NS(=O)(=O)c1ccccc1	131	–	–	–	–	–	–	–
CC(=O)NC(Cc1ccccc1)C(=O)O (stereo in doubt)	172	–	–	–	–	–	–	–
COC(C)(C)CC(C)=O	–	not readily biodegradable	160	–	–	–	0.342	–
Nc1cccc(S(=O)(=O)O)c1	–	not readily biodegradable	–	–	–	–	–	–
Cc1ccc2c(C)c(C)ccc2c1	14	–	–	–	–	–	–	–
C=CCNC(N)=S	78	–	–	–	–	–	–	–
c1ccc(N=NNc2ccccc2)cc1	98	–	–	–	–	–	-4.72	–
O=C(O)CN(CC(=O)O)CC(=O)O	–	not readily biodegradable	–	–	–	–	–	–
Cc1cc(N(CCO)CCO)ccc1N=Nc1ccc([N+](=O)[O-])cc1Cl	192	–	–	–	–	–	–	–
CC(C)CC(Cl)Cl	–	–	130	–	–	–	–	–
COCC(=NOCC(=O)OC)c1cc(Oc2ccc(C(F)(F)F)cc2Cl)ccc1[N+](=O)[O-]	58	–	–	–	–	–	–	–
ClC1(Cl)C2(Cl)C3(Cl)C4(Cl)C(Cl)(Cl)C5(Cl)C3(Cl)C1(Cl)C5(Cl)C24Cl (centres undefined)	–	–	–	-3.09	–	6	-6.1	–

SMILES	melting point [°C]	ready biodegradability	boiling point [°C]	log10 Henry constant (atm·m³/mol)	log10 Koa	log10 Koc (L/kg)	log10 vapour pressure (mmHg)	log10 biodegradation half-life (days)
O=S(=O)(O)CCNC1CCCCC1	320	–	–	–	–	–	–	–
Cc1ccccc1CO[C@H]1C[C@]2(C(C)C)CC[C@@]1(C)O2 (single isomer, unassigned)	–	–	313	–	–	2.6	-4.12	–
CC/C(=C(/CC)c1ccc(O)cc1)c1ccc(O)cc1	–	–	–	–	–	4.14	–	–
CC1(C)CCCc2ccccc21	–	–	221	–	–	–	–	–
Clc1cc(Cl)c(Cl)c(-c2c(Cl)c(Cl)c(Cl)c(Cl)c2Cl)c1	–	–	–	-4.85	–	–	–	–
C#CC(OCC)OCC	–	–	139	–	–	–	–	–
C1OCOCO1	60.2	–	114	–	–	–	1.24	–
COC(=O)c1ccc(O)cc1	131	–	–	–	8.57	–	–	–
FC(F)(Br)C(F)(F)C(F)(F)C(F)(F)C(F)(F)C(F)(F)C(F)(F)C(F)(F)Br	–	–	180	–	–	–	–	–
CNC(=O)Oc1cc(C)cc(C(C)C)c1	87	–	–	–	–	2.48	-4.52	–
CCC[Si](C)(C)C	–	–	89	–	–	–	–	–
Fc1c(F)c(F)c2c(F)c(F)c(F)c(F)c2c1F	87.5	–	209	–	–	–	–	–
CC(C)N(C(=O)SCC(Cl)=C(Cl)Cl)C(C)C	29	–	–	–	–	3.35	-3.92	–
CCCC1C(=O)N2C(N(C)C)=Nc3ccc(C)cc3N2C1=O (centres undefined)	247	–	–	–	–	–	–	–
CCCC/C=C\C(C)(C)O	–	–	177	–	–	–	–	–
CC1CN(C)CCN1C (centres undefined)	–	–	150	–	–	–	–	–
CCOS(=O)(=O)C(F)(F)F	–	–	115	–	–	–	–	–
CCCCC1CCC(=O)O1 (centres undefined)	–	–	234	–	–	–	–	–
CCCOP(=O)(OCCC)OCCC	–	–	252	-6.17	–	–	–	–
CN[C@@H](C)[C@H](O)c1ccccc1	–	–	255	–	–	–	–	–
CC(CCO)CC(C)(C)C (centres undefined)	–	not readily biodegradable	194	–	–	–	-0.523	–
